From patent US20020035061A1, “COMPOSITIONS AND METHODS FOR TREATING INFECTIONS USING CATIONIC PEPTIDES ALONE OR IN COMBINATION WITH ANTIBIOTICS” (priority 1996, published 2002)
Where two headings read alike, the source gives them in different places.

Tests used:
Type in all cases: cell-based
E. coli = details: for Peptide MIC values: agarose dilution
E. faecium = test system: E. faecium
H. influenzae = assay: Agarose dilution assay (MIC); details: H. influenzae HIN002
P. aeruginosa = details: for Peptide MIC values: agarose dilution
S. marcescens = details: for Peptide MIC values: agarose dilution
[1] = test system: microorganisms with acquired resistance; assay: microbe, parasite or virus in culture; details: S. aureus; combination with Mupirocin; in µg/mL
[2] = test system: vancomycin / teicoplanin resistant enterococci; assay: microbe, parasite or virus in culture; details: for Peptide MIC Alone: Vancomycin section; for FIC: peptide + Vancomycin

ILKKFPFFPFRRK [MBI 11A1CN]
MIC (E. coli; E. coli ECO002): 32 µg/mL
Peptide MIC values (E. coli; E. coli ATCC 25922): 128 µg/mL
Peptide MIC values (E. coli; E. coli ESS): 16 µg/mL
Peptide MIC values (E. coli; E. coli NCTC 10418): 16 µg/mL
MIC (E. faecium; E. faecium EFM002): 1 µg/mL
Peptide MIC values (E. faecium; agarose dilution): 128 µg/mL
MIC (H. influenzae): >128 µg/mL
MIC (P. aeruginosa; P. aeruginosa PA004): >128 µg/mL
Peptide MIC values (P. aeruginosa; P. aeruginosa ATCC 27853): >128 µg/mL
Peptide MIC values (P. aeruginosa; P. aeruginosa NCTC 10662): >128 µg/mL
MIC (S. marcescens; S. marcescens SBSM2): >128 µg/mL
Peptide MIC values (S. marcescens; S. marcescens SM76): >128 µg/mL
Peptide MIC values (S. marcescens; S. marcescens SM82): >128 µg/mL
Peptide MIC [1]: 32
Peptide MIC + Vancomycin ([2]; E. faecalis EFS003): 32 µg/mL
Vancomycin MIC + Peptide ([2]; E. faecalis EFS003): 4 µg/mL
Peptide MIC Alone ([2]; E. faecalis EFS003): >128 µg/mL
Peptide MIC + Vancomycin ([2]; E. faecalis EFS006): 0.25 µg/mL
Vancomycin MIC + Peptide ([2]; E. faecalis EFS006): 4 µg/mL
Peptide MIC Alone ([2]; E. faecalis EFS006): 128 µg/mL
Peptide MIC + Vancomycin ([2]; E. faecalis EFS010): 8 µg/mL
Vancomycin MIC + Peptide ([2]; E. faecalis EFS010): 1 µg/mL
Peptide MIC Alone ([2]; E. faecalis EFS010): 128 µg/mL
Peptide MIC + Vancomycin ([2]; E. faecalis EFS014): 2 µg/mL
Vancomycin MIC + Peptide ([2]; E. faecalis EFS014): 1 µg/mL
Peptide MIC Alone ([2]; E. faecalis EFS014): 4 µg/mL
Peptide MIC + Vancomycin ([2]; E. faecium EFM004): 16 µg/mL
Vancomycin MIC + Peptide ([2]; E. faecium EFM004): 0.5 µg/mL
Peptide MIC Alone ([2]; E. faecium EFM004): 32 µg/mL
Peptide MIC + Vancomycin ([2]; E. faecium EFM007): 16 µg/mL
Vancomycin MIC + Peptide ([2]; E. faecium EFM007): 4 µg/mL
Peptide MIC Alone ([2]; E. faecium EFM007): 64 µg/mL
Peptide MIC + Vancomycin ([2]; E. faecium EFM009): 8 µg/mL
Vancomycin MIC + Peptide ([2]; E. faecium EFM009): 4 µg/mL
Peptide MIC Alone ([2]; E. faecium EFM009): 64 µg/mL
FIC ([2]; E. faecalis EFS003): 0.63
FIC ([2]; E. faecalis EFS006): 0.50
FIC ([2]; E. faecalis EFS010): 0.13
FIC ([2]; E. faecalis EFS014): 0.51
FIC ([2]; E. faecium EFM004): 0.50
FIC ([2]; E. faecium EFM007): 0.28
FIC ([2]; E. faecium EFM009): 0.25
